From ChEMBL document CHEMBL1201862, “PubChem BioAssay data set” (2004)
Activity calls are given as the source filed them. Rule as the data show it, for most assays here: actives have a measured IC50 and inactives only a lower limit.

Columns and labels:
[1] = target: Kappa-type opioid receptor (Homo sapiens, UniProt P41145); test: SAR analysis of small molecule agonists of the kappa opioid receptor via a luminescent beta-arrestin assay - Set 3. [Related pubchem assays (depositor defined):AID1777, AID1785, AID1786, AID1966, AID2133, AID2136, AID2284, AID2500]; type: functional
[2] = target: Intestinal-type alkaline phosphatase (Homo sapiens, UniProt P09923); test: human intestinal alkaline phosphatase activators, dose response, biochemical, luminescence, uHTS hits (AID 463120); type: functional
[3] = HEp-2 cell cytotoxicity, dose response, cytotoxicity control for RSV inhibitor project, HTS (AID 2410); type: functional; details: human respiratory syncytial virus
Bcl-2-related protein A1 = target: T1, Bcl-2-related protein A1 (Mus musculus, UniProt Q07440); type: functional;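 also: confirmatory dose–response counterscreen on Bfl-1, used to check hits from a UBC13 polyubiquitin inhibitor campaign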
T1 sequence (Q07440 whole entry): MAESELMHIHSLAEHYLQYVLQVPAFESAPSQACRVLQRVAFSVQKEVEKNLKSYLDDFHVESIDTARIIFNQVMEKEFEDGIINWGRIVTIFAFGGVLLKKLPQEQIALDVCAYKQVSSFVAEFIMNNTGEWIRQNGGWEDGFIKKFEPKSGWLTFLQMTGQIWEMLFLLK

[4] = target: T2, Ubiquitin-conjugating enzyme E2 N (Homo sapiens, UniProt P61088); type: functional
T2 sequence (P61088 whole entry): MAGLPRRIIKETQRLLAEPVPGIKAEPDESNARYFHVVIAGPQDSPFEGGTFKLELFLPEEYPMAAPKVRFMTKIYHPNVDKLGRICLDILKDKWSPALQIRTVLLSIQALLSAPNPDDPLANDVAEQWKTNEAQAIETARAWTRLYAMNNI

[5] = target: T2, Ubiquitin-conjugating enzyme E2 N; type: functional; remark: listed apart in the source
[6] = target: T3, Voltage-gated N-type calcium channel alpha-1B subunit/Amyloid beta A4 precursor protein-binding family A member 1 (Homo sapiens, UniProt Q00975+Q02410); type: protein assay
[7] = target: T3, Voltage-gated N-type calcium channel alpha-1B subunit/Amyloid beta A4 precursor protein-binding family A member 1; type: protein assay; remark: listed apart in the source
SUMO-activating enzyme [8] = target: T4, SUMO-activating enzyme (Homo sapiens, UniProt Q9UBT2); test: SUMOylation inhibitor hit validation, confirmation, SUMOylation inhibitor project, biochemical, AlphaScreen (AID 2018); type: functional
SUMO-activating enzyme [9] = target: T4, SUMO-activating enzyme; test: inhibitors of in vitro SUMOylation cascade, primary screen, biochemical, HTRF, uHTS (AID 2006); type: protein-complex assay
Large T antigen = Large T antigen (Simian virus 40, UniProt P03070); test: A confirmatory biochemical assay using the ADP-Hunter methodology, purified TAg, and ATP to quantify activity of synthesized compounds that inhibit the ATPase activity of Tag (3). [Related pubchem assays (depositor defined):AID1903, AID1909, AID2102, AID2501, AID2615, AID2775, AID435001, AID449729]; design: species or system Betapolyomavirus macacae
[10] = SV40 cytopathic effect inhibition and cytotoxicity, confirmation, BSC cells, set 3 (AID 485276); type: functional, cell-based

T3 sequence (Q00975 whole entry): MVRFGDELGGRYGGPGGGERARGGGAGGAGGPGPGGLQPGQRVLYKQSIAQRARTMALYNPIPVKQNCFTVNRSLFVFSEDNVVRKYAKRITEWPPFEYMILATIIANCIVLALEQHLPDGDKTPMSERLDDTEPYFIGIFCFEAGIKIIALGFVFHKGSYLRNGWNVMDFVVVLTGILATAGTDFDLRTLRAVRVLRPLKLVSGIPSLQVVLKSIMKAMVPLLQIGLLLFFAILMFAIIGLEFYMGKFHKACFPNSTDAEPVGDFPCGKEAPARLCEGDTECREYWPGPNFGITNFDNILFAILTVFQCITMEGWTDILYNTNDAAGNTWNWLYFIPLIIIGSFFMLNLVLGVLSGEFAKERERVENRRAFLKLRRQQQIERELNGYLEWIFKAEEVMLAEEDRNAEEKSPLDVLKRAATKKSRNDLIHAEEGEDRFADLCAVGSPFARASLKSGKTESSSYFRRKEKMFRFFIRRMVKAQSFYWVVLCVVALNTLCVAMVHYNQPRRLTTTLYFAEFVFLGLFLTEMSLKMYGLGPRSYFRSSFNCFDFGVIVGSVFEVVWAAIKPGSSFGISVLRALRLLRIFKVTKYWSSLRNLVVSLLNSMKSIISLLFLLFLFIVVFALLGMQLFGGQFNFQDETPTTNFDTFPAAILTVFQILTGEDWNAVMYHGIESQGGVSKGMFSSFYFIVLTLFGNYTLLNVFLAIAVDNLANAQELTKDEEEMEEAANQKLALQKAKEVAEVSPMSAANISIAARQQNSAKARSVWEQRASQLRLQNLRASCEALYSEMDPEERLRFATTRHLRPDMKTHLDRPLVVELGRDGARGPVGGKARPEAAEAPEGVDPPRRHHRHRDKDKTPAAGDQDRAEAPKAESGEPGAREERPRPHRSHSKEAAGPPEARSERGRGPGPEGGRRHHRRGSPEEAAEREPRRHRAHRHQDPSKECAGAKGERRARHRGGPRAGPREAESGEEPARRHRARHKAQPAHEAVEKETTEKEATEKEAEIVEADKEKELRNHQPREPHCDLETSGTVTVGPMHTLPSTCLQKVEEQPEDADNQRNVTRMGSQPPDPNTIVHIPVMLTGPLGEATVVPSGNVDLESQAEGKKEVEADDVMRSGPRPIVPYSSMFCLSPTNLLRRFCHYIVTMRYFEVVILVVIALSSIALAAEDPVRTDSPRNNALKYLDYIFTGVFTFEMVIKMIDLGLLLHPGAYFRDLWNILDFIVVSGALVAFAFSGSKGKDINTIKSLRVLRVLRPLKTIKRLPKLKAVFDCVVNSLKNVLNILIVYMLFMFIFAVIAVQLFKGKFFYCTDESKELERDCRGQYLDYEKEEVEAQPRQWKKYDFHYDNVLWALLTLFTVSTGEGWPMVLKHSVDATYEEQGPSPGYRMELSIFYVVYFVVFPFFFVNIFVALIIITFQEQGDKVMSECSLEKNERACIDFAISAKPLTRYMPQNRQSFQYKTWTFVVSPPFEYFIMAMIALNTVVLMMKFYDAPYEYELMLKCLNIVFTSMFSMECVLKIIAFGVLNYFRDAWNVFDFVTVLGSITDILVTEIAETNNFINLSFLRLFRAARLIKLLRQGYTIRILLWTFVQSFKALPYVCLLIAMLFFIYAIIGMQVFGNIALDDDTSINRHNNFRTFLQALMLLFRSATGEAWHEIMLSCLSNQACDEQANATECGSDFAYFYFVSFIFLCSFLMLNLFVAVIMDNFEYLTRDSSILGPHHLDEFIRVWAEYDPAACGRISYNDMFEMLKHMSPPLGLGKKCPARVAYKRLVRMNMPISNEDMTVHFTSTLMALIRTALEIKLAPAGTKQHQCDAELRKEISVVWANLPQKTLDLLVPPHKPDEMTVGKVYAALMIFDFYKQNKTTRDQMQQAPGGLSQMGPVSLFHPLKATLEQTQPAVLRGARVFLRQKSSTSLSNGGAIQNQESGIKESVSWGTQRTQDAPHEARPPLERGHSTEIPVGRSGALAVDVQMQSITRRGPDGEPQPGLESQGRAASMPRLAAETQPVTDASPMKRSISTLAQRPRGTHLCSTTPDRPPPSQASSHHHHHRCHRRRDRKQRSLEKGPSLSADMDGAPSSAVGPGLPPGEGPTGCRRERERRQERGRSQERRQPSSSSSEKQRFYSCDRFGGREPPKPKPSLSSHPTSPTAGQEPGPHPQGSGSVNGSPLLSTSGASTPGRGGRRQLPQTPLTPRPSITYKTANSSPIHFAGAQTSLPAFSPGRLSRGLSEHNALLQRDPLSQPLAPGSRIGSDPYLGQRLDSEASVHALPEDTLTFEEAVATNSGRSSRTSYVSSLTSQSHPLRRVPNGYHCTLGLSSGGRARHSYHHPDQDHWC
T3 sequence (Q02410 whole entry): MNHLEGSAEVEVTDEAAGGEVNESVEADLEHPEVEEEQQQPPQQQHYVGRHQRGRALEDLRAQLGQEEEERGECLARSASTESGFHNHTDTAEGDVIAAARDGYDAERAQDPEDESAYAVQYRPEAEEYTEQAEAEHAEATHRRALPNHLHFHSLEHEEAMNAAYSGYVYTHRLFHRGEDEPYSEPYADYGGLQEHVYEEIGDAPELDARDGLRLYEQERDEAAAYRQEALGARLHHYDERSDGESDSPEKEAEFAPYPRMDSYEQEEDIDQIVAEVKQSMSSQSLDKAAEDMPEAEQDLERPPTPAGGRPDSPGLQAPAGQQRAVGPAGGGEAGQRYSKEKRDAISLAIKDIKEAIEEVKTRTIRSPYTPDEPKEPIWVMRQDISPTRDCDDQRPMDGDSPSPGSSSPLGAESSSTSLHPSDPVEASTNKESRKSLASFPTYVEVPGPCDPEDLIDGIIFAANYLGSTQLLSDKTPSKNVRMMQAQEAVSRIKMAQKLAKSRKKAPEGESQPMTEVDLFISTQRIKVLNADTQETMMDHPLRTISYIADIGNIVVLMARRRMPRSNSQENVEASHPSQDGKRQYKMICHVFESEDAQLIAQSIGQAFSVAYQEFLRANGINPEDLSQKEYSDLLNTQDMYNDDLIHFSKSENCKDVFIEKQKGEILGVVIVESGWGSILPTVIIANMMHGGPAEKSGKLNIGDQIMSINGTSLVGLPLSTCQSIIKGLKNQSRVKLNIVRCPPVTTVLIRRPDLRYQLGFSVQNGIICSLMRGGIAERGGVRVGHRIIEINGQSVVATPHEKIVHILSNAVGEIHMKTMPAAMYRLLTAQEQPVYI
T4 sequence (Q9UBE0 whole entry): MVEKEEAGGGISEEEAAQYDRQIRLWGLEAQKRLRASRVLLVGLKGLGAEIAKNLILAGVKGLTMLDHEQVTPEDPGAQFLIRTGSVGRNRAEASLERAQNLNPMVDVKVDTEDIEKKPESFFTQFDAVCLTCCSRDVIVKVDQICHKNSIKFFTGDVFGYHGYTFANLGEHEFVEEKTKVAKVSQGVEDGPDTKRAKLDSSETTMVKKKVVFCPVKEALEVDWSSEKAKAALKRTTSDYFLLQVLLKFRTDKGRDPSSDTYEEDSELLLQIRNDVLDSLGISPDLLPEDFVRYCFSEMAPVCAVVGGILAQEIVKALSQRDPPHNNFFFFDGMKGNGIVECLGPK
T4 sequence (Q9UBT2 whole entry): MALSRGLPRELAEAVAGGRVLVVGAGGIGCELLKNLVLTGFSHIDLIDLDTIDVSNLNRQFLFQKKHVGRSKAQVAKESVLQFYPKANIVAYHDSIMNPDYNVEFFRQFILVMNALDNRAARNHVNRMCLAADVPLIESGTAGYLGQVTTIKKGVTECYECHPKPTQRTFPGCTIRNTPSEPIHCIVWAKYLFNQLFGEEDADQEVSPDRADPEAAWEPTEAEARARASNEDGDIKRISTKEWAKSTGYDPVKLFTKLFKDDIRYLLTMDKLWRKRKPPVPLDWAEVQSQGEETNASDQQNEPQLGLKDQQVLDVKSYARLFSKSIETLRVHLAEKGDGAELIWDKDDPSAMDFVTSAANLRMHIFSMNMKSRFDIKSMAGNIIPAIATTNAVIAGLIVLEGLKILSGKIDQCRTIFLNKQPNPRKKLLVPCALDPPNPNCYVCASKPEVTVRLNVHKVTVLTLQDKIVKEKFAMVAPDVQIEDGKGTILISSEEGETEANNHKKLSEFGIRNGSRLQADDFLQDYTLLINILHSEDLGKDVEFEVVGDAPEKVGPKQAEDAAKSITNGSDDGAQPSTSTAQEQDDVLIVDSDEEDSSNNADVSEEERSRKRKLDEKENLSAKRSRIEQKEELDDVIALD
Sequence of Large T antigen (P03070 whole entry): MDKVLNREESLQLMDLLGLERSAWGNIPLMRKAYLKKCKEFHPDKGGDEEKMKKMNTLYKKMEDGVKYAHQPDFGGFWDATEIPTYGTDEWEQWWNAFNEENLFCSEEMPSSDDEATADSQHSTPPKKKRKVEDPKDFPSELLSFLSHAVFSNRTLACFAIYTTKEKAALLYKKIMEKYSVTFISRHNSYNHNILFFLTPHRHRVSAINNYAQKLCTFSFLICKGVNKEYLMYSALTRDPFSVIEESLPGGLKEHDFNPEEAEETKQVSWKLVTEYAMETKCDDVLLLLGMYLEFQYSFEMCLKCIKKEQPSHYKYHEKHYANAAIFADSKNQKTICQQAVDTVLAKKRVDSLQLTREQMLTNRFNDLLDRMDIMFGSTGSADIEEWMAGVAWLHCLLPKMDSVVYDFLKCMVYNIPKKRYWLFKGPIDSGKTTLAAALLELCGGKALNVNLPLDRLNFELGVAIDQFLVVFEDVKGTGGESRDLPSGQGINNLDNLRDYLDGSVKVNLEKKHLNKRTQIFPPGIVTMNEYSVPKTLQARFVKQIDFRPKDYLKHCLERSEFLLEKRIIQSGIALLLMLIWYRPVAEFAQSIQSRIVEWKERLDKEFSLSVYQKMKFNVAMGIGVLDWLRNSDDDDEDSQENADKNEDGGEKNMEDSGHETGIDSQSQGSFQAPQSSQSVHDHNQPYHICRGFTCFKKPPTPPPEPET

CCCCN(Cc1cc2cc(Cl)ccc2[nH]c1=O)C(=O)c1cccs1
EC50 [1]: > 20 µM (inactive)

C#CCOCCOCCOCCNc1nc(N2CCN(C(=O)CCCCCCCCCCNC(=O)[C@H]([C@@H](C)CC)n3cc(CCCCN=C(N)N)nn3)CC2)nc(N2CCN(C(=O)CCCCCCCCCCNC(=O)[C@H](CO)n3cc(CCCSC)nn3)CC2)n1
EC50 [2]: 40.7 µM (active) | CC50 [3]: 13.7 µM (active) | IC50 (Bcl-2-related protein A1): 3.11 µM (active) | IC50 [4]: 5.99 µM (active) | IC50 [5]: 3.7 µM (active)

O=C(N/N=C/c1ccc([N+](=O)[O-])o1)c1cn2ccc3ccccc3c2n1
IC50 [6]: > 50 µM (inactive) | IC50 [7]: > 56.8 µM (not active) | IC50 (SUMO-activating enzyme [8]): 35.1 µM (active) | IC50 (SUMO-activating enzyme [9]): > 100 µM (inactive)

Oc1ccc(Sc2ccc(O)cc2O)c(O)c1
IC50 (Large T antigen): 61.2 µM (active) | IC50 [10]: 146 µM (active)
